Source: PubChem BioAssay (NCI)
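The compound was tested at five concentrations on cells cultured in 96-well plates, with a 48-hour exposure period. Here, GI50 denotes the concentration required for 50% inhibition of growth. The concentration for full growth arrest is given as TGI.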

How the values were obtained:
Assay in all cases: NCI tumour cell line growth inhibition, 48 h
A549 NSCLC = tested on: A549 NSCLC
HT29 colon = tested on: HT29 colon
MALME-3M melanoma = tested on: MALME-3M melanoma
EKVX NSCLC = tested on: EKVX NSCLC
HCT-116 colon = tested on: HCT-116 colon
SN12C renal = tested on: SN12C renal
OVCAR-4 ovarian = tested on: OVCAR-4 ovarian
HS 578T breast = tested on: HS 578T breast
NCI-H460 lung = tested on: NCI-H460 lung
786-0 renal = tested on: 786-0 renal
LOX IMVI melanoma = tested on: LOX IMVI melanoma
HCC-2998 colon = tested on: HCC-2998 colon
CCRF-CEM leukemia = tested on: CCRF-CEM leukemia
OVCAR-3 ovarian = tested on: OVCAR-3 ovarian
RXF 393 renal = tested on: RXF 393 renal
UACC-257 melanoma = tested on: UACC-257 melanoma
DU-145 prostate = tested on: DU-145 prostate
CAKI-1 renal = tested on: CAKI-1 renal
SR leukemia = tested on: SR leukemia
M14 melanoma = tested on: M14 melanoma
NCI-H23 lung = tested on: NCI-H23 lung
RPMI-8226 leukemia = tested on: RPMI-8226 leukemia
U251 CNS = tested on: U251 CNS
T-47D breast = tested on: T-47D breast
SK-OV-3 ovarian = tested on: SK-OV-3 ovarian
OVCAR-5 ovarian = tested on: OVCAR-5 ovarian
SK-MEL-5 melanoma = tested on: SK-MEL-5 melanoma
HOP-62 NSCLC = tested on: HOP-62 NSCLC
MDA-MB-435 = tested on: MDA-MB-435
SW-620 colon = tested on: SW-620 colon
BT-549 breast = tested on: BT-549 breast
MCF7 breast = tested on: MCF7 breast
UACC-62 melanoma = tested on: UACC-62 melanoma
NCI/ADR-RES ovarian = tested on: NCI/ADR-RES ovarian
HCT-15 colon = tested on: HCT-15 colon
SNB-75 CNS = tested on: SNB-75 CNS
COLO 205 colon = tested on: COLO 205 colon
NCI-H226 lung = tested on: NCI-H226 lung
SK-MEL-2 melanoma = tested on: SK-MEL-2 melanoma
TK-10 renal = tested on: TK-10 renal
SK-MEL-28 melanoma = tested on: SK-MEL-28 melanoma
SF-268 CNS = tested on: SF-268 CNS
KM12 colon = tested on: KM12 colon
SF-295 CNS = tested on: SF-295 CNS
NCI-H522 lung = tested on: NCI-H522 lung
K-562 leukemia = tested on: K-562 leukemia
MOLT-4 leukemia = tested on: MOLT-4 leukemia
PC-3 prostate = tested on: PC-3 prostate
ACHN renal = tested on: ACHN renal
HL-60(TB) leukemia = tested on: HL-60(TB) leukemia
UO-31 renal = tested on: UO-31 renal
A498 renal = tested on: A498 renal
SF-539 CNS = tested on: SF-539 CNS
IGROV1 ovarian = tested on: IGROV1 ovarian
SNB-19 CNS = tested on: SNB-19 CNS
HOP-92 NSCLC = tested on: HOP-92 NSCLC
OVCAR-8 ovarian = tested on: OVCAR-8 ovarian
MDA-MB-231 breast = tested on: MDA-MB-231 breast

CCN(CC)CCCNc1cc(OC)cc2nc3cc(Cl)ccc3nc12
GI50 (A549 NSCLC): 1.18 µM | TGI (A549 NSCLC): 5.3 µM | GI50 (HT29 colon): 0.399 µM | TGI (HT29 colon): 1.87 µM | GI50 (MALME-3M melanoma): 1.68 µM | TGI (MALME-3M melanoma): 3.35 µM | GI50 (EKVX NSCLC): 3.04 µM | TGI (EKVX NSCLC): 14.1 µM | GI50 (HCT-116 colon): 0.508 µM | TGI (HCT-116 colon): 3.63 µM | GI50 (SN12C renal): 1.09 µM | TGI (SN12C renal): 14.5 µM | GI50 (OVCAR-4 ovarian): 1.67 µM | TGI (OVCAR-4 ovarian): 3.51 µM | GI50 (HS 578T breast): 2.53 µM | TGI (HS 578T breast): 9.48 µM | GI50 (NCI-H460 lung): 1.83 µM | TGI (NCI-H460 lung): 10.3 µM | GI50 (786-0 renal): 1.18 µM | TGI (786-0 renal): 3.5 µM | GI50 (LOX IMVI melanoma): 0.913 µM | TGI (LOX IMVI melanoma): 2.25 µM | GI50 (HCC-2998 colon): 1.47 µM | TGI (HCC-2998 colon): 2.92 µM | GI50 (CCRF-CEM leukemia): 2.52 µM | TGI (CCRF-CEM leukemia): 11.1 µM | GI50 (OVCAR-3 ovarian): 2.06 µM | TGI (OVCAR-3 ovarian): 5.9 µM | GI50 (RXF 393 renal): 1.25 µM | TGI (RXF 393 renal): 2.63 µM | GI50 (UACC-257 melanoma): 1.83 µM | TGI (UACC-257 melanoma): 3.31 µM | GI50 (DU-145 prostate): 2.53 µM | TGI (DU-145 prostate): 12.4 µM | GI50 (CAKI-1 renal): 1.75 µM | TGI (CAKI-1 renal): 5.03 µM | GI50 (SR leukemia): 0.633 µM | TGI (SR leukemia): 18 µM | GI50 (M14 melanoma): 1.61 µM | TGI (M14 melanoma): 3.02 µM | GI50 (NCI-H23 lung): 1.79 µM | TGI (NCI-H23 lung): 4.32 µM | GI50 (RPMI-8226 leukemia): 2.53 µM | TGI (RPMI-8226 leukemia): 6.25 µM | GI50 (U251 CNS): 1.22 µM | TGI (U251 CNS): 3.68 µM | GI50 (T-47D breast): 6.62 µM | TGI (T-47D breast): 20.7 µM | GI50 (SK-OV-3 ovarian): 3.6 µM | TGI (SK-OV-3 ovarian): 14.6 µM | GI50 (OVCAR-5 ovarian): 3.56 µM | TGI (OVCAR-5 ovarian): 16.3 µM | GI50 (SK-MEL-5 melanoma): 1.59 µM | TGI (SK-MEL-5 melanoma): 2.96 µM | GI50 (HOP-62 NSCLC): 2.47 µM | TGI (HOP-62 NSCLC): 8.44 µM | GI50 (MDA-MB-435): 1.87 µM | TGI (MDA-MB-435): 3.97 µM | GI50 (SW-620 colon): 0.779 µM | TGI (SW-620 colon): 11.2 µM | GI50 (BT-549 breast): 4.95 µM | TGI (BT-549 breast): 15.3 µM | GI50 (MCF7 breast): 1.5 µM | TGI (MCF7 breast): 6.51 µM | GI50 (UACC-62 melanoma): 2.19 µM | TGI (UACC-62 melanoma): 4.25 µM | GI50 (NCI/ADR-RES ovarian): 1.64 µM | TGI (NCI/ADR-RES ovarian): 8.52 µM | GI50 (HCT-15 colon): 4.12 µM | TGI (HCT-15 colon): 35.4 µM | GI50 (SNB-75 CNS): 1.7 µM | TGI (SNB-75 CNS): 4.35 µM | GI50 (COLO 205 colon): 0.956 µM | TGI (COLO 205 colon): 2.26 µM | GI50 (NCI-H226 lung): 1.48 µM | TGI (NCI-H226 lung): 3.76 µM | GI50 (SK-MEL-2 melanoma): 1.75 µM | TGI (SK-MEL-2 melanoma): 3.43 µM | GI50 (TK-10 renal): 1.85 µM | TGI (TK-10 renal): 5.8 µM | GI50 (SK-MEL-28 melanoma): 1.79 µM | TGI (SK-MEL-28 melanoma): 3.21 µM | GI50 (SF-268 CNS): 1.62 µM | TGI (SF-268 CNS): 8.26 µM | GI50 (KM12 colon): 1.3 µM | TGI (KM12 colon): 3.43 µM | GI50 (SF-295 CNS): 2.33 µM | TGI (SF-295 CNS): 6.48 µM | GI50 (NCI-H522 lung): 1.34 µM | TGI (NCI-H522 lung): 3.08 µM | GI50 (K-562 leukemia): 1.54 µM | TGI (K-562 leukemia): 11.6 µM | GI50 (MOLT-4 leukemia): 1.28 µM | TGI (MOLT-4 leukemia): 13.7 µM | GI50 (PC-3 prostate): 1.97 µM | TGI (PC-3 prostate): 7.43 µM | GI50 (ACHN renal): 1.33 µM | TGI (ACHN renal): 11.8 µM | GI50 (HL-60(TB) leukemia): 2.22 µM | TGI (HL-60(TB) leukemia): 6.66 µM | GI50 (UO-31 renal): 1.19 µM | TGI (UO-31 renal): 4.08 µM | GI50 (A498 renal): 1.27 µM | TGI (A498 renal): 2.7 µM | GI50 (SF-539 CNS): 8.36 µM | TGI (SF-539 CNS): 21.7 µM | GI50 (IGROV1 ovarian): 1.96 µM | TGI (IGROV1 ovarian): 6.78 µM | GI50 (SNB-19 CNS): 2.77 µM | TGI (SNB-19 CNS): 11.7 µM | GI50 (HOP-92 NSCLC): 1.69 µM | TGI (HOP-92 NSCLC): 9.5 µM | GI50 (OVCAR-8 ovarian): 0.838 µM | TGI (OVCAR-8 ovarian): 10.2 µM | GI50 (MDA-MB-231 breast): 2.71 µM | TGI (MDA-MB-231 breast): 11.7 µM
